Data set [1] has as its system Plasmodium falciparum. In words: Antiplasmodial activity chloroquine-resistant Plasmodium falciparum Dd2 by lactate dehydrogenase assay. The format is functional, organism-based.
Data set [2] has as its system Plasmodium falciparum. In words: Antiplasmodial activity chloroquine-sensitive Plasmodium falciparum NF54 by lactate dehydrogenase assay. The format is functional, organism-based.
Another data set has as its system Aspergillus flavus. In words: Antimicrobial activity against Aspergillus flavus. It is filed as functional, organism-based.
The next data set has as its system Candida albicans. Nature of the data set: Antimicrobial activity against Candida albicans. It is filed as functional, organism-based.
The test system of another data set is Escherichia coli. In words: Antimicrobial activity against Escherichia coli. The format is functional, organism-based.
The subject of another data set is Staphylococcus aureus. In words: Antimicrobial activity against Staphylococcus aureus. The format is functional, organism-based.
A further data set deals with CHO. Nature of the data set: Cytotoxicity against CHO cells by MTT assay. The settings on record: Cricetulus griseus. It is filed as cell-based. (Tetrazolium dyes change colour on reduction, which living cells bring about.)
A short description of a further data set: in vitro. The settings on record: hamster.

Activity calls are given as the source filed them. The calls are words filed in the database; no cut-off is given here.

Description for in vitro: Selectivity index, ratio of IC50 for CHO cells to IC50 for chloroquine-sensitive Plasmodium falciparum NF54

Take `C[C@H]1[C@H](OC(=O)CCC(=O)O)O[C@@H]2O[C@@]3(C)CC[C@H]4[C@H](C)CC[C@@H]1[C@@]24OO3` [ARTESUNATE]: the IC50 – broadly, the midpoint of a concentration-inhibition curve – came to 0.046 µM in the data set with Plasmodium falciparum [1] and 0.005 µM with Plasmodium falciparum [2].

With `CC(Br)(CBr)Cn1cc(Br)c(=O)c2ccccc21` (stereo unspecified), the result with Aspergillus flavus, in the data set with Candida albicans, in the data set with Escherichia coli and with Staphylococcus aureus was inactive. Further, in the data set with Plasmodium falciparum [2], the IC50 stood at 35.2 µM.

`CC(Br)(CBr)Cn1cc(Br)c(=O)c2ccc(Cl)cc21` (stereo unspecified): the outcome in the data set on Aspergillus flavus, with Candida albicans, in the data set on Escherichia coli and in the data set on Staphylococcus aureus was inactive. For the same compound, the IC50 was found to be 4.02 µM with Plasmodium falciparum [1], 3.18 µM in the data set on Plasmodium falciparum [2] and 31.8 µM in the data set on CHO. In addition, the selectivity ratio in “in vitro” was determined as 10.

As for `CC[C@H]1CN2CCc3cc(OC)c(OC)cc3[C@@H]2C[C@@H]1C[C@H]1NCCc2cc(OC)c(OC)cc21` [EMETINE], in the data set on CHO, the IC50 amounted to 0.092 µM.

The record behind these values is ChEMBL document CHEMBL3112540, “Synthesis of halogenated 4-quinolones and evaluation of their antiplasmodial activity” (Bioorg Med Chem Lett, 2014).
